Results taken from US7250440B2, “(Hydroxyphenyl)-1H-indole-3-carbaldehyde oxime derivatives as estrogenic agents” (Wyeth, priority 2003, dated 2007).
Read-outs that look alike come from different tables or passages of the source.

Columns and labels:
human ERβ = biological target: T1, human ERβ (Homo sapiens, UniProt Q92731); test: Competition with [3H]-17β-estradiol for binding to the ERβ ligand binding domain
T1 construct: made in house; host or cells: E. coli
Description: (§1) Representative examples of the invention were evaluated for their ability to compete with 17β-estradiol for both ERα and ERβ. This test procedure provides the methodology for one to determine whether a particular compound binds to the estrogen receptor (and is therefore “estrogenic”) and whether there is selectivity for ERα or ERβ. […] 17β-estradiol is included as a standard reference for comparison. The procedure used is briefly described below. A crude lysate of E. coli expressing the estrogen receptor ligand binding domains D, E, & F) of human ERα or ERβ was prepared. Both receptors and compounds were diluted in 1× Dulbecco's PBS (DPBS) supplemented with 1 mM EDTA. Using a high binding masked microtiter plate, 100 uL of receptor (1 uG/well) was combined with 2 nM [^3H]-17β-estradiol and various concentrations of compound. After between 5 and 15 hours at room temperature, the plates were washed with DPBS/1 mM EDTA and bound radioactivity determined by liquid scintillation counting.

human ERα = biological target: T2, human ERα (Homo sapiens, UniProt P03372); test: Competition with [3H]-17β-estradiol for binding to the ERα ligand binding domain; conditions: crude E. coli lysate expressing human ERα ligand binding domain; 2 nM [3H]-17β-estradiol; 5-15 hours at room temperature
T2 construct: made in house; host or cells: E. coli
T2 sequence (P03372 311-547 limits assumed): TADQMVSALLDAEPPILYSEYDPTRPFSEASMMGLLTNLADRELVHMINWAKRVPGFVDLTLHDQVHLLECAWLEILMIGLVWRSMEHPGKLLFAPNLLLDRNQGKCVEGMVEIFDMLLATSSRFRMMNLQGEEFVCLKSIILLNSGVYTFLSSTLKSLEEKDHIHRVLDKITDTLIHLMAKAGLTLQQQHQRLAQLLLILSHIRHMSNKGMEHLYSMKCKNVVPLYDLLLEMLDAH
Description: as §1

T1 sequence (Q92731 264-498 limits assumed): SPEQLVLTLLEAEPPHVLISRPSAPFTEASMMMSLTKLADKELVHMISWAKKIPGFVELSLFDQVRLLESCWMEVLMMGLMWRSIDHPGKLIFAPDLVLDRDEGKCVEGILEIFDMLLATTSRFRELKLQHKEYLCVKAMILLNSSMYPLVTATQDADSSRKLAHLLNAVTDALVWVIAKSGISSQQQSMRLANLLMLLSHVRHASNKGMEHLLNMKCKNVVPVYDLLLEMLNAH

Structure (SMILES): Cc1c(/C=N/O)c2ccccc2n1-c1ccc(O)cc1 [Example 4, 1-(4-Hydroxyphenyl)-2-methyl-1H-indole-3-carbaldehyde oxime]
- melting point: 171 to 173 °C

Structure (SMILES): Cc1c(/C=N/O)c2cc(F)ccc2n1-c1ccc(O)cc1 [Example 5, 5-Fluoro-1-(4-hydroxyphenyl)-2-methyl-1H-indole-3-carbaldehyde oxime]
- melting point: 162 to 163 °C
- IC50 (human ERβ): 6.2 nM
- IC50 (human ERα): 91 nM

Structure (SMILES): Cc1c(/C=N/O)c2cc(Cl)ccc2n1-c1ccc(O)cc1 [Example 6, 5-Chloro-1-(4-hydroxyphenyl)-2-methyl-1H-indole-3-carbaldehyde oxime]
- melting point: 212 to 213 °C
- IC50 (human ERβ): 29 nM
- IC50 (human ERα): 145 nM

Structure (SMILES): O/N=C/c1cn(-c2ccc(O)cc2)c2ccccc12 [Example 9, 1-(4-Hydroxyphenyl)-1H-indole-3-carbaldehyde oxime]
- melting point: 95 to 97 °C

Structure (SMILES): O/N=C1\CCCc2c1c1ccccc1n2-c1ccc(O)cc1 [Example 8, (4E)-9-(4-Hydroxyphenyl)-1,2,3,9-tetrahydro-4H-carbazol-4-one oxime]
- melting point: 227 to 229 °C
- IC50 (human ERβ): 10 nM
- IC50 (human ERα): 153 nM

Structure (SMILES): Cc1c(/C=N/O)c2cc(Br)ccc2n1-c1ccc(O)cc1 [Example 7, 5-Bromo-1-(4-hydroxyphenyl)-2-methyl-1H-indole-3-carbaldehyde oxime]
- melting point: 209 to 211 °C
- IC50 (human ERβ): 93.5 nM
- IC50 (human ERα): 235 nM

Structure (SMILES): Cc1c(/C=N/O)c2ccccc2n1-c1ccc(O)c(F)c1 [Example 10, 1-(3-Fluoro-4-hydroxyphenyl)-2-methyl-1H-indole-3-carbaldehyde oxime]
- melting point: 182 to 184 °C
- IC50 (human ERβ; crude E. coli lysate expressing human ERβ ligand binding domain, 2 nM [3H]-17β-estradiol, 5-15 hours at room temperature, read-out: ERβ): 8 nM
